Calls of active or inactive are those of the source. No rule for the calls is given here.
molecular target: Perilipin-5 (Homo sapiens) + 1-acylglycerol-3-phosphate O-acyltransferase ABHD5 (Homo sapiens) (UniProt Q00G26+Q8WTS1); assay: PubChem AID 652130; conditions: ABHD5/PLIN5 interaction, luminescence, HEK293T-produced proteins
Sequence (Q00G26 whole entry, looked up): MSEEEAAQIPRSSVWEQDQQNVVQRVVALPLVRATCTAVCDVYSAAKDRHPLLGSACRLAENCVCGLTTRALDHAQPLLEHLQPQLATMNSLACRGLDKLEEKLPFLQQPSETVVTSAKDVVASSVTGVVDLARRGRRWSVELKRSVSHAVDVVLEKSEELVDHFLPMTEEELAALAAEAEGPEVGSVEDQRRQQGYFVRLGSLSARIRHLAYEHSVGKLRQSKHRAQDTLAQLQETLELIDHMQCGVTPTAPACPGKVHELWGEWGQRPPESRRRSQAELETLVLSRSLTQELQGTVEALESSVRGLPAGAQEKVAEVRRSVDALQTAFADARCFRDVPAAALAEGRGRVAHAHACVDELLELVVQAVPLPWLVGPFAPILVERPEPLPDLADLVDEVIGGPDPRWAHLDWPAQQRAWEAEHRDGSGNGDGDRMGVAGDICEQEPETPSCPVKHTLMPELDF
Sequence (Q8WTS1 whole entry, looked up): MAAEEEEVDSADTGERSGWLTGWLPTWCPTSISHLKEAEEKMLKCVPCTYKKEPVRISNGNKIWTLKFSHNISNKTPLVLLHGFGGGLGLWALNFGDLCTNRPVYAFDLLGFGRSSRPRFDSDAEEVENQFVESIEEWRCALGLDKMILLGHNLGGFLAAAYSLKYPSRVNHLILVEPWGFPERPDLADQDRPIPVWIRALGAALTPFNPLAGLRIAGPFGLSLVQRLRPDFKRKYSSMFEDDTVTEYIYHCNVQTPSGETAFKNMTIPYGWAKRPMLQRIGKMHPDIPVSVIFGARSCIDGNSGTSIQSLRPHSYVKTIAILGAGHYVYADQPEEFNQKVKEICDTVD

Row | Structure (SMILES) | IC50
1 | CCCS(=O)(=O)c1ncc(Cl)c(C(=O)Nc2ccc(C(=O)OC)cc2)n1 | 6.37 µM
2 | Cc1ccc(CS(=O)(=O)c2ncc(Cl)c(C(=O)Nc3nnc(C(C)C)s3)n2)cc1 | > 39.8 µM (inactive)
3 | CN1C(=O)c2ccccc2Sc2ccc(NC(=O)NCCCc3ccccc3)cc21 | 1.99 µM
4 | Cc1ccc2c(CC(=O)N3CCN(S(=O)(=O)c4ccc5c(c4)OCCCO5)CC3)coc2c1C | 4.85 µM
5 | NS(=O)(=O)c1ccc(NC(=O)c2nc(S(=O)(=O)Cc3ccccc3)ncc2Cl)cc1 | 4.68 µM
6 | CN1C(=O)c2ccccc2Oc2ccc(NC(=O)c3cc4ccccc4[nH]3)cc21 | > 39.8 µM (inactive)
7 | Cc1ccc(CS(=O)(=O)c2ncc(Cl)c(C(=O)N3CCN(C)CC3)n2)cc1 | 5.9 µM
8 | CCCS(=O)(=O)c1ccc(Cl)c(C(=O)Nc2ccc(C(=O)OCC)cc2)c1 | 6.17 µM
9 | CCc1ccc2c(CC(=O)N3CCN(S(=O)(=O)c4ccc5c(c4)OCCO5)CC3)coc2c1 | 3.46 µM
10 | CN1C(=O)c2ccccc2Sc2ccc(NC(=O)NCCc3cccs3)cc21 | 5.6 µM
11 | CCCC(=O)Nc1ccc2c(c1)C(=O)N(C)c1cc(C)ccc1O2 | > 39.8 µM (inactive)
12 | CN(C)CCCN(C(=O)Cc1ccc(F)cc1)c1nc2ccc(Cl)cc2s1 | > 39.8 µM (inactive)
13 | O=C(C1COc2ccccc2O1)N1CCN(S(=O)(=O)c2ccc3c(c2)OCCO3)CC1 (configuration not stated) | > 39.8 µM (inactive)
14 | CN1C(=O)c2ccccc2Sc2ccc(NC(=O)NCCc3ccccc3)cc21 | 4.37 µM
15 | CN1C(=O)c2ccccc2Oc2ccc(NC(=O)c3cccs3)cc21 | > 39.8 µM (inactive)
16 | CN(C)CCCN(C(=O)c1cc2ccccc2oc1=O)c1nc2ccc(Cl)cc2s1 | > 39.8 µM (inactive)
17 | CN(C)CCCN(C(=O)C1CCCCC1)c1nc2cc(Cl)ccc2s1 | > 39.8 µM (inactive)
18 | O=C(Cc1cccc(F)c1)N1CCN(S(=O)(=O)c2ccc3c(c2)OCCO3)CC1 | > 39.8 µM (inactive)
19 | O=C(Nc1ccc2ccccc2c1)c1nc(S(=O)(=O)Cc2ccccc2)ncc1Cl | 2.36 µM
20 | Cc1ccc2cc(CC(=O)N3CCN(S(=O)(=O)c4ccc5c(c4)OCCO5)CC3)oc2c1 | inactive
21 | CN(C)CCCN(C(=O)CCc1ccccc1)c1nc2ccc(Cl)cc2s1 | > 39.8 µM (inactive)
22 | CS(=O)(=O)c1ncc(Cl)c(C(=O)Nc2ccc(C(F)(F)F)cc2)n1 | 1.62 µM
23 | Cc1ccc(CS(=O)(=O)c2ncc(Cl)c(C(=O)NCc3ccc4c(c3)OCO4)n2)cc1 | 3.36 µM
24 | CN(C(=O)c1nc(S(C)(=O)=O)ncc1Cl)c1ccccc1 | 3.65 µM

Row | Structure (SMILES) | IC50
25 | O=C(CCn1cnc2ccccc21)N1CCN(S(=O)(=O)c2ccc3c(c2)OCCO3)CC1 | > 39.8 µM (inactive)
26 | COc1ccc(CC(=O)N2CCN(S(=O)(=O)c3ccc4c(c3)OCCCO4)CC2)cc1 | > 39.8 µM (inactive)
27 | O=C(CCc1nc2ccccc2s1)N1CCN(S(=O)(=O)c2ccc3c(c2)OCCO3)CC1 | inactive
28 | CCCC(=O)Nc1ccc2c(c1)C(=O)N(C)c1ccccc1O2 | > 39.8 µM (inactive)
29 | COc1ccc(OCC(=O)Nc2ccc3c(c2)N(C(C)C)C(=O)c2ccccc2O3)cc1 | > 39.8 µM (inactive)
30 | CCS(=O)(=O)c1ncc(Cl)c(C(=O)Nc2ccc(C)cc2)n1 | 4.23 µM
31 | O=C(c1nc(S(=O)(=O)Cc2ccccc2)ncc1Cl)N(Cc1ccccc1)Cc1ccco1 | 1.76 µM
32 | COc1ccc(CC(=O)N2CCCN(S(=O)(=O)c3ccc(C)cc3)CC2)cc1OC | > 39.8 µM (inactive)
33 | O=C(Cc1ccc2c(c1)CCCC2)N1CCN(S(=O)(=O)c2ccc3c(c2)OCCO3)CC1 | inactive
34 | CN(C)CCCN(C(=O)C1CCCCC1)c1nc2cc(Br)ccc2s1 | > 39.8 µM (inactive)
35 | CCCCCCNC(=O)Nc1ccc2c(c1)Sc1ccccc1C(=O)N2C | > 39.8 µM (inactive)
36 | CCS(=O)(=O)c1ncc(Cl)c(C(=O)Nc2ccc(S(N)(=O)=O)cc2)n1 | 8.4 µM
37 | CC(NC(=O)CN1CCN(S(=O)(=O)c2ccc3c(c2)OCCCO3)CC1)c1cc2ccccc2o1 (configuration not stated) | > 39.8 µM (inactive)
38 | CCCC(=O)N(CCCN1CCOCC1)c1nc2ccc(Cl)cc2s1 | > 39.8 µM (inactive)
39 | O=C(CCc1c[nH]c2ccccc12)N1CCN(S(=O)(=O)c2ccc3c(c2)OCCO3)CC1 | > 39.8 µM (inactive)
40 | CCCNC(=O)Nc1ccc2c(c1)N(CC)C(=O)c1ccccc1S2 | inactive
41 | COc1ccc(CCNC(=O)c2nc(S(=O)(=O)Cc3ccc(F)cc3)ncc2Cl)cc1OC | 2.82 µM
42 | CCCCCNC(=O)Nc1ccc2c(c1)Sc1ccccc1C(=O)N2C | > 39.8 µM (inactive)
43 | Cc1ccc(NC(=O)c2nc(S(C)(=O)=O)ncc2Cl)cc1 | 3.83 µM
44 | CCCCCCCNC(=O)Nc1ccc2c(c1)Sc1ccccc1C(=O)N2C | inactive
45 | Cc1ccc(CS(=O)(=O)c2ncc(Cl)c(C(=O)Nc3cccc4ccccc34)n2)cc1 | 2.7 µM
46 | Cc1ccc(CS(=O)(=O)c2ncc(Cl)c(C(=O)Nc3cccc(C(F)(F)F)c3)n2)cc1 | 2.46 µM
47 | CC(C)N1C(=O)c2ccccc2Oc2ccc(NC(=O)c3ccccc3)cc21 | > 39.8 µM (inactive)

From PubChem BioAssay AID652130 (The Scripps Research Institute Molecular Screening Center, 2013)
